Measurements from US4451450A, “Cationic compounds useful for making radiodiagnostic agents” (New England Nuclear Corporation, priority 1981, dated 1984).

Tested on: Rabbit Heart
Assay: Imaging of rabbit heart (scintillation camera, intravenous injection)
Assay type: in vivo
Details: 2 mCi i.v., 2.5 Kg male New Zealand Albino rabbit, approximately 10 minutes after injection
Experimental: 2 mCi of Thallium-201 (as thallous chloride in physiological saline containing 0.9% benzyl alcohol) is injected intravenously into a 2.5 Kg male New Zealand Albino rabbit. The rabbit is positioned under a Searle Pho-Gamma scintillation camera in such a way that the heart and lung area are covered by the field of view.
Greater than 1 mCi of the ^99m Tc-labelled product of Example 3 is injected into a rabbit and imaged as in Example 16.

Thallium-201
image of the heart (reference Tl-201): sufficient counts are accumulated to produce an image of the heart analogous to that seen in clinical studies of humans
